Data from patent US20180221306A1, “PHARMACEUTICAL COMPOSITIONS OF 5-HYDROXY-2-METHYLNAPHTHALENE-1,4-DIONE” (PellFiCure Pharmaceuticals, Inc., priority 2016, published 2018).

Assay: Forced degradation: stability of Compound I formulations in selected solvents and Carrier A (HPLC)
[1] = EtOH, 25° C./60% RH, t = 2 week

CC1=CC(=O)c2c(O)cccc2C1=O [Compound I, 5-hydroxy-2-methylnaphthalene-1,4-dione]
Solution Stability in Selected Solvents, Purity (DMSO, 25° C./60% RH, t = 2 week): 92.47 % Area | Solution Stability in Selected Solvents, Purity (DMSO, 40° C./75% RH, t = 1 week): 89.28 % Area | Solution Stability in Selected Solvents, Purity (DMSO, 40° C./75% RH, t = 2 week): 89.26 % Area | Solution Stability in Selected Solvents, Purity (Diluent, 25° C./60% RH, t = 0): 99.77 % Area | Solution Stability in Selected Solvents, Purity (Diluent, 25° C./60% RH, t = 1 week): 99.76 % Area | Solution Stability in Selected Solvents, Purity (Diluent, 25° C./60% RH, t = 2 week): 99.79 % Area | Solution Stability in Selected Solvents, Purity (Diluent, 40° C./75% RH, t = 1 week): 99.81 % Area | Solution Stability in Selected Solvents, Purity (Diluent, 40° C./75% RH, t = 2 week): 99.82 % Area | Solution Stability in Selected Solvents, Purity (EA (poor chromatography observed with ethyl acetate), 25° C./60% RH, t = 0): 80.16 % Area | Solution Stability in Selected Solvents, Purity (EA (poor chromatography), 25° C./60% RH, t = 1 week): 77.38 % Area | Solution Stability in Selected Solvents, Purity (EA (poor chromatography), 25° C./60% RH, t = 2 week): 76.03 % Area | Solution Stability in Selected Solvents, Purity (EA (poor chromatography), 40° C./75% RH, t = 1 week): 77.28 % Area | Solution Stability in Selected Solvents, Purity (EA (poor chromatography), 40° C./75% RH, t = 2 week): 77.13 % Area | Solution Stability in Selected Solvents, Purity (EtOH, 25° C./60% RH, t = 0): 99.37 % Area | Solution Stability in Selected Solvents, Purity (EtOH, 25° C./60% RH, t = 1 week): 96.08 % Area | Solution Stability in Selected Solvents, % Potency [1]: 93.35% | Solution Stability in Selected Solvents, Purity [1]: 92.82 % Area | Solution Stability in Selected Solvents, Purity (EtOH, 40° C./75% RH, t = 1 week): 91.99 % Area | Solution Stability in Selected Solvents, Purity (EtOH, 40° C./75% RH, t = 2 week): 89.39 % Area | Solution Stability in Selected Solvents, Purity (IPA, 25° C./60% RH, t = 0): 98.80 % Area | Solution Stability in Selected Solvents, Purity (IPA, 25° C./60% RH, t = 1 week): 95.62 % Area | Solution Stability in Selected Solvents, Purity (IPA, 25° C./60% RH, t = 2 week): 93.35 % Area | Solution Stability in Selected Solvents, Purity (IPA, 40° C./75% RH, t = 1 week): 91.10 % Area | Solution Stability in Selected Solvents, Purity (IPA, 40° C./75% RH, t = 2 week): 89.40 % Area | Solution Stability in Selected Solvents, Purity (MeOH, 25° C./60% RH, t = 0): 99.32 % Area | Solution Stability in Selected Solvents, Purity (MeOH, 25° C./60% RH, t = 1 week): 95.54 % Area | Solution Stability in Selected Solvents, Purity (MeOH, 25° C./60% RH, t = 2 week): 88.79 % Area | Solution Stability in Selected Solvents, Purity (MeOH, 40° C./75% RH, t = 1 week): 86.56 % Area | Solution Stability in Selected Solvents, Purity (MeOH, 40° C./75% RH, t = 2 week): 83.85 % Area | Solution Stability in Selected Solvents, Purity (PEG 300, 25° C./60% RH, t = 0): 98.52 % Area | Solution Stability in Selected Solvents, Purity (PEG 300, 25° C./60% RH, t = 1 week): 88.59 % Area | Solution Stability in Selected Solvents, Purity (PEG 300, 25° C./60% RH, t = 2 week): 80.73 % Area | Solution Stability in Selected Solvents, Purity (PEG 300, 40° C./75% RH, t = 1 week): 65.16 % Area | Solution Stability in Selected Solvents, Purity (PEG 300, 40° C./75% RH, t = 2 week): 49.31 % Area | Solution Stability in Selected Solvents, Purity (PEG 400, 25° C./60% RH, t = 0): 98.33 % Area | Solution Stability in Selected Solvents, Purity (PEG 400, 25° C./60% RH, t = 1 week): 88.42 % Area | Solution Stability in Selected Solvents, Purity (PEG 400, 25° C./60% RH, t = 2 week): 81.00 % Area | Solution Stability in Selected Solvents, Purity (PEG 400, 40° C./75% RH, t = 1 week): 70.08 % Area | Solution Stability in Selected Solvents, Purity (PEG 400, 40° C./75% RH, t = 2 week): 49.07 % Area | Solution Stability in Selected Solvents, Purity (PG, 25° C./60% RH, t = 0): 99.65 % Area | Solution Stability in Selected Solvents, Purity (PG, 25° C./60% RH, t = 1 week): 99.14 % Area | Solution Stability in Selected Solvents, Purity (PG, 25° C./60% RH, t = 2 week): 97.81 % Area | Solution Stability in Selected Solvents, Purity (PG, 40° C./75% RH, t = 1 week): 97.49 % Area | Solution Stability in Selected Solvents, Purity (PG, 40° C./75% RH, t = 2 week): 96.43 % Area | Solution Stability in Selected Solvents, Purity (THF, 25° C./60% RH, t = 0): 96.45 % Area | Solution Stability in Selected Solvents, Purity (THF, 25° C./60% RH, t = 1 week): 94.19 % Area | Solution Stability in Selected Solvents, Purity (THF, 25° C./60% RH, t = 2 week): 91.24 % Area | Solution Stability in Selected Solvents, Purity (THF, 40° C./75% RH, t = 1 week): 92.54 % Area | Solution Stability in Selected Solvents, % Potency (THF, 40° C./75% RH, t = 2 week): 99.82% | Solution Stability in Selected Solvents, Purity (THF, 40° C./75% RH, t = 2 week): 89.34 % Area | Compound I lost (Tween-20 or Tween-80 surfactant formulations): ≥ 50%
